Measured values reported in US11338040B2, “Immunomodulatory compounds” (Leidos, Inc., priority 2020, dated 2022).
Non-standard residues stand in square brackets, D forms with d. Residues, ends and D or L forms follow the SMILES beside them. PEG4 = NCCOCCOCCOCCOCCC(=O)O

Tests used:
[1] = molecular target: T1, interaction between LAG3 and MHC-II (Homo sapiens, UniProt P18627); assay: HTRF (TR-FRET) LAG3/MHC-II binding assay; conditions: for response in dilution curve (HTRF signal): 10-fold dilutions starting at 100 μM or 10 μM, FIGS. 2A-9B; for effect on HTRF signal: tested at 100 μM, 10 μM, and 1 μM, FIG. 1
T1 construct: purchased Cisbio US Inc
T1 sequence (P18627 23-450 limits assumed): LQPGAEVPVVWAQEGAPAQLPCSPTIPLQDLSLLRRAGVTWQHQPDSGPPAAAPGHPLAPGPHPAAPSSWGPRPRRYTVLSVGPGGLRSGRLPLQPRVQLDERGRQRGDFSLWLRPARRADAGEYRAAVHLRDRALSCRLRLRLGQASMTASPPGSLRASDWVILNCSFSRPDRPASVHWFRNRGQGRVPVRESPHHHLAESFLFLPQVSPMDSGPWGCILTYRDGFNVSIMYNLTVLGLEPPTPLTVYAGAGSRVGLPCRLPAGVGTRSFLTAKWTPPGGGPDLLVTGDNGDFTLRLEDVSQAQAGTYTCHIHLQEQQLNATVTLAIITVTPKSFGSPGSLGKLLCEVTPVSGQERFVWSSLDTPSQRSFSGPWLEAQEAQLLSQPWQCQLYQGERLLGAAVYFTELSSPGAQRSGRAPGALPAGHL
Source text: A Homogeneous Time-resolved Fluorescence (HTRF) LAG3/MHC-II binding assay (Cisbio US Inc.) was used to measure the interaction between MHC-II and LAG3 in the presence of various peptides and peptide conjugates. In this assay, the interaction between Tag1-LAG3 and Tag2-MHC-II is detected by using anti-Tag1-Terbium (HTRF donor) and anti-Tag2-XL665 (HTRF acceptor). When the donor and acceptor antibodies are brought into close proximity due to LAG3 and MHC-II binding, excitation of the donor antibody triggers fluorescent resonance energy transfer (FRET) towards the acceptor antibody, which in turn emits specifically at 665 nm. This specific signal is directly proportional to the extent of LAG3/MHC-II interaction. Thus, an agent that blocks the interaction between LAG3 and MHC-II will cause a reduction in HTRF ratio.
Each of peptide conjugates BT1, BT2, BT3, BT4, BT5, BT6, BT7, BT8, BT9, and peptides LG11 (LAG3-11), LAG3-56 (SEQ ID NO:5), and LAG3-42 (SEQ ID NO:6) was tested at 3 concentrations: 100 μM, 10 μM, and 1 μM. The dashed-lines represent the HTRF ratio readout of a control ovalbumin peptide (OVA, SEQ ID NO:7) (baseline) at the respective concentrations.
peptide conjugates and LG peptides were tested in full dilution curves in the LAG3:MHCII TR-FRET Assay described above to estimate IC50. peptide conjugates were tested starting at 100 μM or 10 μM. LG peptides were tested starting at 100 μM.

[2] = Precipitation on dilution in assay buffer; type: physicochemical; conditions: 100 μM final in assay buffer
Procedure: FIG. 1 is a graph reporting the results of a TR-FRET assay testing the ability of peptide conjugates and individual peptides to affect the interaction between LAG3 and MHC-II. * indicates precipitation when diluted in assay buffer at 1 mM (100 μM final).

PD1 = molecular target: T2, PD1 (Homo sapiens, UniProt Q15116); assay: PD1/PDL1 cell reporter assay (PathHunter, Jurkat PD1/SHP1 EFC cells co-incubated with PDL1-presenting U2OS cells); type: cell-based; conditions: peptide conjugates at 3.6 μM, 10.8 μM, 32.5 μM in triplicate; FIG. 10
T2 construct: expressed in transfected cells; host or cells: Jurkat cells (PD1-EFC and SHP1-EFC) co-cultured with PDL1-presenting U2OS cells
T2 sequence (Q15116 25-288): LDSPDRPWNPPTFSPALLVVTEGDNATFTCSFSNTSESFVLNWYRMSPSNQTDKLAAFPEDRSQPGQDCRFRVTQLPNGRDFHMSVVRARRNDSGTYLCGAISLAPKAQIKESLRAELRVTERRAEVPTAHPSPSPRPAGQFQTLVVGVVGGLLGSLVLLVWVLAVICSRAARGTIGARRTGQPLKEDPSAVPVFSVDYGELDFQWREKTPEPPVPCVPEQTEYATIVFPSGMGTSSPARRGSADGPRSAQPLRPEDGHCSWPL
Procedure: Jurkat cells expressing PD1 and SHP1 proteins, each fused to a fragment of enzyme fragment complementation (EFC) system, were co-incubated with PDL1-presenting U2OS cells. […] Cells in co-culture were incubated at room temperature (RT) for 2 h (PD1 assay). The assay signal was generated using the PathHunter Bioassay Detection kit. Microplates were read following signal generation using a PerkinElmer ENVISION™ instrument for chemiluminescent signal detection. Inhibitory peptides or antibodies added to the culture result in reduction of light signal. The degree of inhibition was calculated using the following formula: Percent inhibition=100%×[1−(mean RLU of test sample−mean RLU of vehicle control)/mean RLU of EC80 control−mean RLU of vehicle control)].
Peptide conjugates BT1-BT11 were tested at three concentrations: 3.6 μM, 10.8 μM, 32.5 μM in triplicate wells. peptide conjugates were dissolved in DMSO and serially diluted in assay buffer. The highest concentration that can be tested in this assay was 32.5 μM peptide conjugate (1% DMSO).
Peptides LD12 (SEQ ID NO:9), LD10 (SEQ ID NO:1), and LD16 (SEQ ID NO:10) were tested at three concentrations: 11 μM, 33 μM, 100 μM in triplicate. LD peptides were dissolved in water and serially diluted in assay buffer. RLUs were measured at the end of the assay, and % Inhibition (% Efficiency) was calculated using the formula above.

Compound	response in dilution curve (HTRF signal) [1]	effect on HTRF signal [1]	precipitation in assay buffer [2]	inhibition of PD1 activity (percent inhibition of light signal) (PD1)	IC50 ([1]; LAG3:MHCII TR-FRET full dilution curves)
CC[C@H](C)[C@H](NC(=O)[C@H](CO)NC(=O)[C@@H](NC(=O)[C@H](CC(C)C)NC(=O)[C@H](CCCNC(=N)N)NC(=O)[C@@H](NC(=O)[C@H](CC(N)=O)NC(=O)[C@@H](NC(=O)[C@@H](NC(=O)[C@H](C)NC(=O)[C@@H]1CCCN1C(=O)[C@H](CC(C)C)NC(=O)[C@H](CO)NC(=O)[C@H](CCC(N)=O)NC(=O)CCOCCOCCOCCOCCNC(=O)[C@H](Cc1c[nH]c2ccccc12)NC(=O)[C@H](CCC(=O)O)NC(=O)CNC(=O)[C@@H](NC(=O)CNC(=O)[C@H](CCC(N)=O)NC(=O)[C@H](Cc1c[nH]c2ccccc12)NC(=O)[C@H](Cc1c[nH]c2ccccc12)NC(=O)[C@H](CC(=O)O)NC(=O)[C@H](CCC(=O)O)NC(=O)[C@@H]1CCCN1C(=O)[C@H](Cc1c[nH]c2ccccc12)NC(=O)[C@H](Cc1c[nH]cn1)NC(=O)[C@H](CC(C)C)NC(=O)[C@@H]1CCCN1C(=O)[C@H](CCC(=O)O)NC(=O)[C@H](Cc1c[nH]c2ccccc12)NC(=O)[C@@H]1CCCN1C(=O)[C@H](C)NC(=O)[C@@H](N)CO)[C@@H](C)O)[C@@H](C)O)[C@@H](C)CC)C(C)C)[C@@H](C)O)C(=O)N[C@@H](CCC(N)=O)C(=O)NCC(=O)N[C@H](C(=O)N[C@H](CO)C(N)=O)[C@@H](C)O [BT4] (H-SAPWEPLHWPEDWWQGTGEW[PEG4]QSLPATINVRLTSIQGT[dS]-NH2)	reduced the HTRF signal at 10 μM	reduced the HTRF signal	precipitation occurred at 100 μM	did not show inhibition at any of the tested concentrations	
CC[C@H](C)[C@H](NC(=O)[C@H](CO)NC(=O)[C@@H](NC(=O)[C@H](CC(C)C)NC(=O)[C@H](CCCNC(=N)N)NC(=O)[C@@H](NC(=O)[C@H](CC(N)=O)NC(=O)[C@@H](NC(=O)[C@@H](NC(=O)[C@H](C)NC(=O)[C@@H]1CCCN1C(=O)[C@H](CC(C)C)NC(=O)[C@H](CO)NC(=O)[C@H](CCC(N)=O)NC(=O)CCOCCOCCOCCOCCNC(=O)[C@H](CO)NC(=O)[C@H](C)NC(=O)[C@@H]1CCCN1C(=O)[C@H](Cc1c[nH]c2ccccc12)NC(=O)[C@H](CCC(=O)O)NC(=O)[C@@H]1CCCN1C(=O)[C@H](CC(C)C)NC(=O)[C@H](Cc1c[nH]cn1)NC(=O)[C@H](Cc1c[nH]c2ccccc12)NC(=O)[C@@H]1CCCN1C(=O)[C@H](CCC(=O)O)NC(=O)[C@H](CC(=O)O)NC(=O)[C@H](Cc1c[nH]c2ccccc12)NC(=O)[C@H](Cc1c[nH]c2ccccc12)NC(=O)[C@H](CCC(N)=O)NC(=O)CNC(=O)[C@@H](NC(=O)CNC(=O)[C@H](CCC(=O)O)NC(=O)[C@@H](N)Cc1c[nH]c2ccccc12)[C@@H](C)O)[C@@H](C)O)[C@@H](C)CC)C(C)C)[C@@H](C)O)C(=O)N[C@@H](CCC(N)=O)C(=O)NCC(=O)N[C@H](C(=O)N[C@H](CO)C(N)=O)[C@@H](C)O [BT5] (H-WEGTGQWWDEPWHLPEWPAS[PEG4]QSLPATINVRLTSIQGT[dS]-NH2)	reduced the HTRF signal at 10 μM	reduced the HTRF signal	precipitation occurred at 100 μM	did not show inhibition at any of the tested concentrations	
CC[C@H](C)[C@H](NC(=O)[C@H](CCC(N)=O)NC(=O)CNC(=O)[C@@H](NC(=O)[C@@H](CO)NC(=O)CCOCCOCCOCCOCCNC(=O)[C@H](Cc1c[nH]c2ccccc12)NC(=O)[C@H](CCC(=O)O)NC(=O)CNC(=O)[C@@H](NC(=O)CNC(=O)[C@H](CCC(N)=O)NC(=O)[C@H](Cc1c[nH]c2ccccc12)NC(=O)[C@H](Cc1c[nH]c2ccccc12)NC(=O)[C@H](CC(=O)O)NC(=O)[C@H](CCC(=O)O)NC(=O)[C@@H]1CCCN1C(=O)[C@H](Cc1c[nH]c2ccccc12)NC(=O)[C@H](Cc1c[nH]cn1)NC(=O)[C@H](CC(C)C)NC(=O)[C@@H]1CCCN1C(=O)[C@H](CCC(=O)O)NC(=O)[C@H](Cc1c[nH]c2ccccc12)NC(=O)[C@@H]1CCCN1C(=O)[C@H](C)NC(=O)[C@@H](N)CO)[C@@H](C)O)[C@@H](C)O)C(=O)N[C@@H](CO)C(=O)N[C@H](C(=O)N[C@@H](CC(C)C)C(=O)N[C@@H](CCCNC(=N)N)C(=O)N[C@H](C(=O)N[C@@H](CC(N)=O)C(=O)N[C@H](C(=O)N[C@H](C(=O)N[C@@H](C)C(=O)N1CCC[C@H]1C(=O)N[C@@H](CC(C)C)C(=O)N[C@@H](CO)C(=O)N[C@@H](CCC(N)=O)C(N)=O)[C@@H](C)O)[C@@H](C)CC)C(C)C)[C@@H](C)O [BT2]	reduced the HTRF signal at 10 μM	reduced the HTRF signal	precipitation occurred at 100 μM	did not show inhibition at any of the tested concentrations	8.44 µM
H2N-(dS)TGQISTLRVNITAPLSQ^1-PEG4-SAPWEPLHWPEDWWQGTGEW^3-amide [BT1]	reduced the HTRF signal at 10 μM	reduced the HTRF signal	precipitation occurred at 100 μM	did not show inhibition at any of the tested concentrations	
